The values below come from patent US9789046B2, “Water-based resin nail polish” (LES FINS NETWORK TECHNOLOGY CO., LTD., priority 2015, dated 2017).

What is called MIC50 is an inhibitory concentration at the 50% level, which refers to growth in some studies and to a panel of isolates in others.

Molecules are shown by their SMILES. Converted amounts (≈) assume the structure as drawn.

What all share (test): Antifungal activity experiment, 96-pore plate, MTT, OD 570 nm
Holding throughout (type): cell-based
Conditions in all cases: MH medium, 37° C., 24 h, read-out: semi-inhibition rate MIC50

One assay has as its system Trichophyton gypsum. The procedure: (§1) Bacteria (Trichophyton rubrum, Trichophyton gypsum and flocculent trichomementagrophytes) are suspended in an MH culture medium, the dispersion concentration is about 10^5 cfu·mL−1, the bacterial solution is added onto 96-pore plate (100 μL of the bacterial solution is added into each pore), the culture medium is used as a blank control, DMSO is used for substituting a test material as a negative control, and itraconazole (Xian-Janssen Pharmaceutical Ltd.) is used as a positive control. […] The 96-pore plate is placed into an incubator at 37° C. to be cultured for 24 h, then 25 μL of the prepared solution containing 4 mg of PBS of MTT for each mL is added into each hole, and the solution is cultured for 4 h under a same condition, 100 μL of SDS lysis solution (including 95 mL of triple-distilled, 10 g of SDS, 5 mL of isopropyl alcohol and 0.1 mL of concentrated hydrochloric acid) is added into each pore and then is cultured for 12 h. An enzyme labeling instrument is used for determining an OD value at 570 nm, and a percent inhibition rate is calculated according to the formula equation: […]

The next assay deals with Trichophyton rubrum. On the procedure:
as §1

The test system of assay [1] is flocculent trichomementagrophytes. On the procedure:
as §1

Consider `COc1ccc(-c2cc(=O)c3cc(O)c(OC)c4c3n2OC2OC(C)=C(O)C=C2C4)cc1` (stereo not drawn) [compound of formula I], for which the MIC50 in the assay with Trichophyton gypsum was 0.6 µg/mL; in the assay with Trichophyton rubrum, 0.63 µg/mL; in assay [1], 0.82 µg/mL.
As for `CCC(C)n1ncn(-c2ccc(N3CCN(c4ccc(OCC5COC(Cn6cncn6)(c6ccc(Cl)cc6Cl)O5)cc4)CC3)cc2)c1=O` (stereo not drawn) [itraconazole], the MIC50 with Trichophyton gypsum was 0.7 µg/mL (≈ 0.992 µM); with Trichophyton rubrum, 0.63 µg/mL (≈ 0.893 µM); in assay [1], 0.65 µg/mL (≈ 0.921 µM).
